Laboratory results as given in ChEMBL document CHEMBL1201862, “PubChem BioAssay data set” (2004).
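96-well plates; 48 h exposure; 5 concentrations. Endpoints by linear interpolation between flanking doses. Not reached: highest tested concentration assigned. At the GI50, growth is halved.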 Calls of active or inactive are those of the source. Rule as the data show it: active = GI50 up to about 1.1 µM and inactive = higher.

Tests used:
Test in all cases: DTP human tumour cell line panel, 48 h
SNB-19 = tested on: SNB-19
M14 = tested on: M14
A498 = tested on: A498
MOLT-4 = tested on: MOLT-4
OVCAR-5 = tested on: OVCAR-5
M19-MEL = tested on: M19-MEL
LOX IMVI = tested on: LOX IMVI
IGROV-1 = tested on: IGROV-1
SF-295 = tested on: SF-295
HL-60 = tested on: HL-60
COLO 205 = tested on: COLO 205
786-0 = tested on: 786-0
PC-3 = tested on: PC-3
MDA-MB-435 = tested on: MDA-MB-435
HOP-62 = tested on: HOP-62
Hs-578T = tested on: Hs-578T
NCI/ADR-RES = tested on: NCI/ADR-RES
T47D = tested on: T47D
BT-549 = tested on: BT-549
HCT-116 = tested on: HCT-116

| Structure (SMILES) | GI50 (SNB-19) | GI50 (M14) | GI50 (A498) | GI50 (MOLT-4) | GI50 (OVCAR-5) | GI50 (M19-MEL) | GI50 (LOX IMVI) | GI50 (IGROV-1) | GI50 (SF-295) | GI50 (HL-60) | GI50 (COLO 205) | GI50 (786-0) | GI50 (PC-3) | GI50 (MDA-MB-435) | GI50 (HOP-62) | GI50 (Hs-578T) | GI50 (NCI/ADR-RES) | GI50 (T47D) | GI50 (BT-549) | GI50 (HCT-116) |
| --- | --- | --- | --- | --- | --- | --- | --- | --- | --- | --- | --- | --- | --- | --- | --- | --- | --- | --- | --- | --- |
| CCC1CC2C(=O)N(c3ccccc3)C(=O)C2c2[nH]c3ccccc3c21 (stereo not drawn) | 22.9 µM (inactive) | 17.1 µM (inactive) | 25.4 µM (inactive) | 20.2 µM (inactive) | > 100 µM (inactive) | 20.4 µM (inactive) | 17.1 µM (inactive) | 6.43 µM (inactive) | 7.19 µM (inactive) | 21.6 µM (inactive) | 22 µM (inactive) | 18.9 µM (inactive) |  |  |  |  |  |  |  |  |
| COc1ccc2c(c1)-c1nn(CCN(C)C)c3ccc(C(=O)NCCCN(C)CCCNC(=O)c4ccc5c6c(c7cc(OC)ccc7nc46)NN5CCN(C)C)c(c13)N2 | 0.0159 µM (active) | 0.0822 µM (active) | 0.0859 µM (active) | < 0.01 µM (active) | 0.126 µM (active) |  | 0.0192 µM (active) | 0.0215 µM (active) | 0.0671 µM (active) | 0.204 µM (active) | 0.0169 µM (active) | 0.0313 µM (active) | 0.0208 µM (active) | 0.0401 µM (active) | 0.0318 µM (active) | 0.201 µM (active) | 1.7 µM (inactive) | 0.158 µM (active) | 0.138 µM (active) | < 0.01 µM (active) |
| CCC(=O)N(c1ccccc1)C(C)CN1CCC(O)(c2ccccc2)CC1 (stereo not drawn) | > 100 µM (inactive) | > 100 µM (inactive) | > 100 µM (inactive) | > 100 µM (inactive) | > 100 µM (inactive) |  | > 100 µM (inactive) | > 100 µM (inactive) | > 100 µM (inactive) | > 100 µM (inactive) | > 100 µM (inactive) | > 100 µM (inactive) | > 100 µM (inactive) | > 100 µM (inactive) | > 100 µM (inactive) | > 100 µM (inactive) | > 100 µM (inactive) | > 100 µM (inactive) | > 100 µM (inactive) | 80.9 µM (inactive) |
| C[C@H]1C2Cc3cc(O)ccc3[C@@]1(C)CCN2CCc1ccc(N)cc1 | 81.7 µM (inactive) | 18.4 µM (inactive) | > 100 µM (inactive) | 23.7 µM (inactive) | > 100 µM (inactive) |  | 14.1 µM (inactive) | 13.6 µM (inactive) | 18.6 µM (inactive) | 38.3 µM (inactive) | 28.6 µM (inactive) | 15.8 µM (inactive) | 18.8 µM (inactive) | 17.1 µM (inactive) | 8.69 µM (inactive) | > 100 µM (inactive) | 25.7 µM (inactive) | 80.5 µM (inactive) | > 100 µM (inactive) | 15.9 µM (inactive) |
| COc1ccc(-c2cc(=O)c3c(O)cc(O)cc3o2)cc1OC | 26.6 µM (inactive) | > 100 µM (inactive) | 4.57 µM (inactive) | 44 µM (inactive) | > 100 µM (inactive) |  | 61.8 µM (inactive) | 92 µM (inactive) | 44.8 µM (inactive) | 39.9 µM (inactive) | > 100 µM (inactive) | 68.9 µM (inactive) | 55.1 µM (inactive) | > 100 µM (inactive) | 24 µM (inactive) | 11.5 µM (inactive) | 56.8 µM (inactive) | 71.9 µM (inactive) | 17.9 µM (inactive) | 28.2 µM (inactive) |
| O=C1c2ccccc2S[C@@H](O)[C@@H]2CCCN12 | > 100 µM (inactive) | > 100 µM (inactive) |  | > 100 µM (inactive) | > 100 µM (inactive) | > 100 µM (inactive) | > 100 µM (inactive) | 21.9 µM (inactive) | > 100 µM (inactive) | > 100 µM (inactive) | > 100 µM (inactive) | > 100 µM (inactive) |  |  | > 100 µM (inactive) |  |  |  |  | > 100 µM (inactive) |
| CC(=O)CC(=O)Nc1ccccc1C(F)(F)F | > 100 µM (inactive) | > 100 µM (inactive) | > 100 µM (inactive) | > 100 µM (inactive) | > 100 µM (inactive) | > 100 µM (inactive) | > 100 µM (inactive) | > 100 µM (inactive) |  | > 100 µM (inactive) | > 100 µM (inactive) | > 100 µM (inactive) |  |  | > 100 µM (inactive) |  |  |  |  | > 100 µM (inactive) |
| CCOC(=O)CCc1c(C)c2ccc(O)cc2oc1=O | > 100 µM (inactive) | > 100 µM (inactive) | > 100 µM (inactive) | > 100 µM (inactive) | > 100 µM (inactive) |  | > 100 µM (inactive) | > 100 µM (inactive) | > 100 µM (inactive) | > 100 µM (inactive) | > 100 µM (inactive) | > 100 µM (inactive) | > 100 µM (inactive) | > 100 µM (inactive) | > 100 µM (inactive) | > 100 µM (inactive) | > 100 µM (inactive) | > 100 µM (inactive) | > 100 µM (inactive) | > 100 µM (inactive) |
